The values that follow come from US20080312208A1, “Pyridine Analogues” (ASTRAZENECA AB, priority 2005, published 2008).

Molecules are shown by their SMILES.

In general, IC50 refers to the concentration that inhibits the measured activity by half. Lower therefore signals inhibition by little substance.

One series has as its target T1, P2Y12 receptor (Homo sapiens, UniProt Q9H244).
T1 construct: expressed in transfected cells; host or cells: CHO cells (membranes)
Kind of series: Functional inhibition of 2-Me-S-ADP induced P2Y12 signalling (35S-GTPγS, cell membranes). Type of series: biochemical. The following applies: membranes from P2Y12 transfected CHO-cells, EC80 concentration of agonist 2-methyl-thio-adenosine diphosphate, 30° C. for 45 min. As for the experimental part: Functional inhibition of the P2Y12 receptor can be measured by in vitro assays using cell membranes from P2Y12 transfected CHO-cells, the methodology is indicated below.
Functional inhibition of 2-Me-S-ADP induced P2Y12 signalling: 5 μg of membranes were diluted in 200 μl of 200 mM NaCl, 1 mM MgCl2, 50 mM HEPES (pH 7.4), 0.01% BSA, 30 μg/ml saponin and 10 μM GDP. To this was added an EC80 concentration of agonist (2-methyl-thio-adenosine diphosphate), the required concentration of test compound and 0.1 μCi ^35S-GTPγS. The reaction was allowed to proceed at 30° C. for 45 min. Samples were then transferred on to GF/B filters using a cell harvester and washed with wash buffer (50 mM Tris (pH 7.4), 5 mM MgCl2, 50 mM NaCl). Filters were then covered with scintillant and counted for the amount of ^35S-GTPγS retained by the filter. Maximum activity was that determined in the presence of the agonist and minimum activity in the absence of the agonist following subtraction of the value determined for nonspecific activity. The effect of compounds at various concentrations was plotted according to the equation
y=A+((B−A)/(1+((C/x)̂D)))
and IC50 estimated where A is the bottom plateau of the curve i.e. the final minimum y value B is the top of the plateau of the curve i.e. the final maximum y value C is the x value at the middle of the curve. […]

Series [1] in a line: Moisture adsorption of crystalline form on storage at 80% RH. The following applies: stored at 80% RH (ambient). Type of series: physicochemical. On the procedure:
The crystalline forms may be further characterised by the presence of one or more of the additional properties listed below: • (i) for Form I • (I) when characterised by thermogravimetric analysis, a weight loss of approx. 0.8% occurs in the range from 25° C. up to 205° C., and/or • (II) when characterised by differential scanning calorimetry, at a heating rate of 10° C. per minute in a closed cup with a pinhole under flowing nitrogen, a melting temperature (Tm) having an onset at about 194° C. and/or an associated endotherm of melting of about 96 J/g; and/or • (III) when stored at 80% RH (ambient) less than 0.2% moisture is adsorbed, • (i) […] • (I) when characterised by thermogravimetric analysis, a weight loss of approx. 0.2% occurs in the range from 25° C. up to 205° C., and/or • (II) when characterised by differential scanning calorimetry, at a heating rate of 10° C. per minute in a closed cup with a pinhole under flowing nitrogen, a melting temperature (Tm) having an onset at about 193° C. and/or an associated endotherm of melting of about 105 J/g.

T1 sequence (Q9H244 whole entry): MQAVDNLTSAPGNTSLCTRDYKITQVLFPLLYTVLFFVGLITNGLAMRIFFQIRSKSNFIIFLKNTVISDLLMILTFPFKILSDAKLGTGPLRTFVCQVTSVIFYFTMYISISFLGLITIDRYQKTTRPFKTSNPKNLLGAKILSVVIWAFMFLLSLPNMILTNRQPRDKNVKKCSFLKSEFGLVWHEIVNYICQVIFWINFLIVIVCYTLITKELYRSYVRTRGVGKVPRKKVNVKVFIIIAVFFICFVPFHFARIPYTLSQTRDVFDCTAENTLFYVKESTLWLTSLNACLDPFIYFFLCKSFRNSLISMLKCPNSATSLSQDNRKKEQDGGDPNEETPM

For `CCOC(=O)c1cc(C#N)c(N2CCC(C(=O)NS(=O)(=O)Cc3ccc(C(C)C)cc3)CC2)nc1C` [Example 119, Ethyl 5-cyano-6-[4-({[(4-isopropylbenzyl)sulfonyl]amino}carbonyl)piperidin-1-yl]-2-methylnicotinate], the IC50 at P2Y12 receptor is 250 nM.

`Cc1nc(N2CC(C(=O)NS(=O)(=O)Cc3cccc(F)c3)C2)c(C#N)cc1C(=O)OC(C)C` [Example 91, Isopropyl 5-cyano-6-[3-({[(3-fluorobenzyl)sulfonyl]amino}carbonyl)azetidin-1-yl]-2-methylnicotinate] yielded an IC50 on P2Y12 receptor of 460 nM. For the compound `CCOC(=O)c1cc(C#N)c(N2CCC(C(=O)NS(=O)(=O)Cc3ccccc3)CC2)nc1C` [Form I, 6-(4-{[(benzylsulfonyl)amino]carbonyl}piperidin-1-yl)-5-cyano-2-methylnicotinic acid ethyl ester], the moisture adsorbed entry in series [1] is on record as “less than 0.2%”.
